We go through 14 compounds from ChEMBL document CHEMBL1629591, “Codetection of blaOXA-23-like gene (blaOXA-133) and blaOXA-58 in Acinetobacter radioresistens: report from the SENTRY antimicrobial surveillance program” (2009).

In brackets after ≈: the same amount, converted by molar mass.

Holding throughout (assay type): functional
The subject of experiment [1] is Acinetobacter radioresistens. In words: Antimicrobial activity against Acinetobacter radioresistens 251-39C expressing beta-lactamase OXA-133 by CLSI method.
Experiment [2] deals with Acinetobacter radioresistens. In words: Antimicrobial activity against plasmid encoded beta-lactamase OXA-58 deficient Acinetobacter radioresistens by CLSI method.
In experiment [3] the test system is Acinetobacter radioresistens. In words: Antimicrobial activity against Acinetobacter radioresistens 251-39C expressing beta-lactamase OXA-133 by CLSI method in presence of beta-lactamase inhibitor clavulanate.
Experiment [4] deals with Acinetobacter radioresistens. As to the kind of experiment: Antimicrobial activity against plasmid encoded beta-lactamase OXA-58 deficient Acinetobacter radioresistens by CLSI method in presence of beta-lactamase inhibitor clavulanate.
In experiment [5] the test system is Acinetobacter radioresistens. As to the kind of experiment: Antimicrobial activity against Acinetobacter radioresistens 251-39C expressing beta-lactamase OXA-133 by CLSI method in presence of beta-lactamase inhibitor Sulbactam.
The subject of experiment [6] is Acinetobacter radioresistens. As to the kind of experiment: Antimicrobial activity against plasmid encoded beta-lactamase OXA-58 deficient Acinetobacter radioresistens by CLSI method in presence of beta-lactamase inhibitor Sulbactam.
The subject of experiment [7] is Acinetobacter radioresistens. In words: Antimicrobial activity against Acinetobacter radioresistens 251-39C expressing beta-lactamase OXA-133 by CLSI method in presence of beta-lactamase inhibitor Tazobactam.
Experiment [8] concerns Acinetobacter radioresistens. As to the kind of experiment: Antimicrobial activity against plasmid encoded beta-lactamase OXA-58 deficient Acinetobacter radioresistens by CLSI method in presence of beta-lactamase inhibitor Tazobactam.

As usually defined, the MIC is the lowest concentration found to suppress growth. With `C[C@@H](O)[C@H]1C(=O)N2C(C(=O)O)=C(S[C@@H]3CN[C@H](C(=O)Nc4cccc(C(=O)O)c4)C3)[C@H](C)[C@H]12`, the figures for the MIC in experiment [1] and in experiment [2] were 4 µg/mL (≈ 8.41 µM) and 1 µg/mL (≈ 2.1 µM), respectively.

Take `NCC[C@H](O)C(=O)N[C@@H]1C[C@H](N)[C@@H](O[C@H]2O[C@H](CN)[C@@H](O)[C@H](O)[C@H]2O)[C@H](O)[C@H]1O[C@H]1O[C@H](CO)[C@@H](O)[C@H](N)[C@H]1O` [AMIKACIN]: the MIC in experiment [1] and in experiment [2] was 0.5 µg/mL (≈ 0.854 µM) each time.

For `CC1(C)S[C@@H]2[C@H](NC(=O)[C@H](N)c3ccc(O)cc3)C(=O)N2[C@H]1C(=O)O` [AMOXICILLIN], the MIC amounted to 32 µg/mL in experiment [3] and 2 µg/mL in experiment [4].

With `CC1(C)S[C@@H]2[C@H](NC(=O)[C@H](N)c3ccccc3)C(=O)N2[C@H]1C(=O)O` [AMPICILLIN], the MIC in experiment [5] and in experiment [6] was 1 µg/mL each time.

As for `CO[C@@]1(NC(=O)Cc2cccs2)C(=O)N2C(C(=O)O)=C(COC(N)=O)CS[C@@H]21` [CEFOXITIN], the MIC in experiment [1] and in experiment [2] was 8 µg/mL (≈ 18.7 µM) each time.

In the case of `CC(C)(O/N=C(\C(=O)N[C@@H]1C(=O)N2C(C(=O)[O-])=C(C[n+]3ccccc3)CS[C@H]12)c1csc(N)n1)C(=O)O` [CEFTAZIDIME], the MIC in experiment [1] and in experiment [2] was 0.5 µg/mL (≈ 0.915 µM) in each case.

In the case of `CO/N=C(\C(=O)N[C@@H]1C(=O)N2C(C(=O)O)=C(CSc3nc(=O)c(O)nn3C)CS[C@H]12)c1csc(N)n1` [CEFTRIAXONE], the results for the MIC in experiment [1] and in experiment [2] were 4 µg/mL (≈ 7.21 µM) and 2 µg/mL (≈ 3.61 µM), respectively.

As to `C[C@@H](O)[C@H]1C(=O)N2C(C(=O)O)=C(SCCNC=N)C[C@H]12` [IMIPENEM ANHYDROUS], the MIC in experiment [1] is 8 µg/mL (≈ 26.7 µM); in experiment [2], 0.25 µg/mL (≈ 0.835 µM).

For `C[C@@H](O)[C@H]1C(=O)N2C(C(=O)O)=C(S[C@@H]3CN[C@H](C(=O)N(C)C)C3)[C@H](C)[C@H]12` [MEROPENEM], the values for the MIC in experiment [1] and in experiment [2] were 1 µg/mL (≈ 2.61 µM) and 0.25 µg/mL (≈ 0.652 µM), respectively.

Regarding `CCN1CCN(C(=O)N[C@@H](C(=O)N[C@@H]2C(=O)N3[C@@H]2SC(C)(C)[C@@H]3C(=O)O)c2ccccc2)C(=O)C1=O` [PIPERACILLIN], the results for the MIC in experiment [7] and in experiment [8] were 64 µg/mL and 1 µg/mL, respectively.

For `CN(C)[C@@H]1C(O)=C(C(N)=O)C(=O)[C@@]2(O)C(O)=C3C(=O)c4c(O)cccc4[C@@](C)(O)[C@H]3C[C@@H]12` [TETRACYCLINE], the MIC in experiment [1] and in experiment [2] was at most 2 µg/mL in each case.

For `CC1(C)S[C@@H]2[C@H](NC(=O)[C@H](C(=O)O)c3ccsc3)C(=O)N2[C@H]1C(=O)O` [TICARCILLIN], the MIC in experiment [3] was over 256 µg/mL; in experiment [4] it was 4 µg/mL.

With `NC[C@H]1O[C@H](O[C@H]2[C@H](O)[C@@H](O[C@H]3O[C@H](CO)[C@@H](O)[C@H](N)[C@H]3O)[C@H](N)C[C@@H]2N)[C@H](N)C[C@@H]1O` [TOBRAMYCIN], the MIC in experiment [1] and in experiment [2] was 2 µg/mL (≈ 4.28 µM) each time.

Consider POLYMYXIN B, for which the minimal inhibitory concentration (MIC) in experiment [1] and in experiment [2] was under 0.5 µg/mL throughout.
